According to article PMC5131319, “Occurrence, temporal trends, and half-lives of perfluoroalkyl acids (PFAAs) in occupational workers in China” (Scientific Reports, 2016):
Read-outs that look alike come from different tables or passages of the source.

Assays:
[1] = fishery employees from Tangxun Lake; cited from earlier work
[2] = cited from earlier work
[3] = PFAA concentration in serum of occupational workers (HPLC-ESI/MS/MS); assay type: in vivo, human; set-up: Serum PFAA level: unit: ng/mL
Method: (§1) The selected fluorochemical plant (Henxin Chemical Plant) in this study is one of the largest producers of PFOS-related chemicals in China and is located in Yingcheng, Hubei province. Perfluoroalkyl sulfonic acids (PFSAs) and perfluorotertiary amines are synthesized through an electro-chemical fluorination (ECF) process. We collected paired serum and urine samples from the occupational workers in the plant for five consecutive years, and the sampling activities were carried out in Nov. 2008, Nov. 2009, Nov. 2010, Dec. 2011, and Dec 2012, respectively. The Medical Research Ethics Committee, School of Medicine, Jianghan University, approved the ethics of this study, and all methods were performed in accordance with the relevant guidelines and regulations, moreover, all volunteers gave written informed consent. Demographic information of the donors, including gender, age, length of service, and work assignment, was collected with a questionnaire (Table S1). The sampled population included a total of 302 occupational workers, of which there were 89 female and 213 male participants. In total, 302 serum and 274 urine samples were collected.
(§2) The participants were told not to eat breakfast before the sampling, and morning urine samples and blood samples were collected. Serum was separated from the blood by centrifugation at 1100 × g at 4 °C for 10 min and then placed on ice. Serum samples were then transferred to our laboratory on the same day and stored in polypropylene containers at −20 °C until analysis.
(§3) All pre-treatment methods and instrument analysis of PFAAs in serum and urine samples are based on previous studies with minor modifications (see Supplementary Information)[3][31]. Based on the PFAA profiles in environmental matrices around the same plant in our previous study, only 3 main PFAAs, PFHxS, PFOA, and PFOS, were analyzed in the obtained serum and urine samples. Instrumental analysis of the PFAAs was performed by a HPLC-ESI/MS/MS system (HPLC: Waters 2695, MS: Waters Quattro Premier XE). The limits of detection (LODs) of PFHxS, PFOA, and PFOS were 0.020, 0.063, and 0.018 ng mL^−1 for serum samples and 0.008, 0.025, and 0.007 ng mL^−1 for urine samples, respectively. A procedural blank was performed for every batch of seven samples, and all of the blank levels were below the LODs. […] Details of quality assurance and quality control of the chemical analysis can be found in the Supplementary Information.

[4] = workers in another fluorochemical plant in China; cited from earlier work
[5] = set-up: method as in PMID 23980546, PMID 12499116, PMID 20236705; settings: set value; cited from earlier work
[6] = PFAA concentration in morning urine of occupational workers (HPLC-ESI/MS/MS); assay type: in vivo, human
Method: as §1, §2, §3
Urine samples were pretreated by solid phase extraction. Briefly, 1 mL of urine spiked with 5 ng of internal standard was added to a 15 - mL PP tube and diluted with 13 mL water. The solid phase extraction procedure was then performed following the previously described serum extraction procedure.

[7] = Fabric finishing agent department, N 8

In the case of `O=S(=O)(O)C(F)(F)C(F)(F)C(F)(F)C(F)(F)C(F)(F)C(F)(F)F` [PFHxS, perfluorohexane sulfonate], the “Clrenal, median” value [1] is given as 0.012 mL/day/kg, the “Shortest half-life in humans reported in previous studies” value [2] is given as 7.3 years and the “Half-life based on serum concentrations” value ([2]; humans) is given as “more than 5 years”. For the same molecule, the “Half-life (GM)” value ([2]; retired fluorochemical production workers) was 7.3 years, the “Half-life by daily clearance (GM)” value ([2]; young females) was 7.8 years and the “Serum concentration, mean” value ([3]; All workers, N 302) was 1855 ng/mL. The “Serum concentration, median” value ([3]; All workers, N 302) was 764 ng/mL, the “Serum PFAA level” value ([3]; Electrolytic Department, length of service 1-3 years) was 960 and the “Serum PFAA level” value ([3]; Electrolytic Department, length of service < 1 year) was 197. The “Serum PFAA level” value ([3]; Electrolytic Department, length of service >3 years) was 1116, the “Serum concentration, mean” value ([3]; Electrolytic department, N 74) was 1469 ng/mL and the “Serum concentration, median” value ([3]; Electrolytic department, N 74) was 1011 ng/mL. For the same molecule, the “Serum concentration, range” value ([3]; Electrolytic department, N 74) was 46.6 to 6759 ng/mL, the “Serum concentration, mean” value [3, 7] was 1956 ng/mL and the “Serum concentration, median” value [3, 7] was 1768 ng/mL. The “Serum concentration, range” value [3, 7] was 550 to 4690 ng/mL, the “Serum PFAA level” value ([3]; Management Office, length of service 1-3 years) was 65.1 and the “Serum PFAA level” value ([3]; Management Office, length of service < 1 year) was 8.5. For the same molecule, the “Serum PFAA level” value ([3]; Management Office, length of service >3 years) was 186, the “Serum concentration, mean” value ([3]; Management office, N 92) was 331 ng/mL and the “Serum concentration, median” value ([3]; Management office, N 92) was 169 ng/mL. For the same molecule, the “Serum PFAA level” value ([3]; Research Building, length of service 1-3 years) was 946, the “Serum PFAA level” value ([3]; Research Building, length of service < 1 year) was 26 and the “Serum PFAA level” value ([3]; Research Building, length of service >3 years) was 607. For the same molecule, the “Serum concentration, mean” value ([3]; Research building, N 27) was 842 ng/mL, the “Serum concentration, median” value ([3]; Research building, N 27) was 506 ng/mL and the “Serum concentration, range” value ([3]; Research building, N 27) was 3.0 to 3360 ng/mL. The “Serum PFAA level” value ([3]; Sulfonation Department, length of service 1-3 years) was 1477, the “Serum PFAA level” value ([3]; Sulfonation Department, length of service < 1 year) was 1129 and the “Serum PFAA level” value ([3]; Sulfonation Department, length of service >3 years) was 3087. The “Serum concentration, mean” value ([3]; Sulfonation department, N 101) was 3778 ng/mL, the “Serum concentration, median” value ([3]; Sulfonation department, N 101) was 2250 ng/mL and the “Serum concentration, geometric mean” value ([3]; all occupational workers) was 628 ng/mL. The “Average serum concentration (Average ± SD)” value ([3]; female workers, n 89) was 1,044 ± 1718 ng mL^−1, the concentration at 2009 calendar year ([3]; human, serum, 2009, 37 workers, read-out: Serum concentration in workers (decline estimate)) was 455 ng/mL and the concentration at 2010 calendar year ([3]; human, serum, 2010, 37 workers, read-out: Serum concentration in workers (decline estimate)) was 366 ng/mL. For the same molecule, the concentration at 2008 calendar year ([3]; human, serum, other: occupational exposure, 46 workers sampled at least three times, 2008, read-out: Serum concentration, GM) was 328 ng/mL, the concentration at 2012 calendar year ([3]; human, serum, other: occupational exposure, 46 workers sampled at least three times, 2012, read-out: Serum concentration, GM) was 1670 ng/mL and the “Average serum concentration (Average ± SD)” value ([3]; male workers, n 213) was 2,191 ± 3,050 ng mL^−1. The “Serum concentration, GM” value ([3]; workers with service length 1–3 years) was 521 ng/mL, the “Serum concentration, GM” value ([3]; workers with service length less than 1 year) was 212 ng/mL and the “Serum concentration, GM” value ([3]; workers with service length more than 3 years) was 830 ng/mL. The “Serum concentration, median” value [4] was 0.98 ng/mL, the “Vd (volume of distribution in the human body)” value [5] was 0.23 L/kg and the “Urine concentration, mean” value ([6]; All workers, N 274) was 3.9 ng/mL. The “Urine concentration, median” value ([6]; All workers, N 274) was 1.7 ng/mL, the “Urine concentration, mean” value ([6]; Electrolytic department, N 67) was 2.3 ng/mL and the “Urine concentration, median” value ([6]; Electrolytic department, N 67) was 1.3 ng/mL. The “Urine concentration, mean” value [6, 7] was 3.5 ng/mL, the “Urine concentration, median” value [6, 7] was 2.4 ng/mL and the “Urine concentration, range” value [6, 7] was 0.79 to 7.1 ng/mL. For the same molecule, the “Urine concentration, mean” value ([6]; Management office, N 76) was 0.93 ng/mL, the “Urine concentration, median” value ([6]; Management office, N 76) was 0.37 ng/mL and the “Urine concentration, mean” value ([6]; Research building, N 25) was 1.9 ng/mL. The “Urine concentration, median” value ([6]; Research building, N 25) was 0.97 ng/mL, the “Urine concentration, mean” value ([6]; Sulfonation department, N 98) was 7.1 ng/mL and the “Urine concentration, median” value ([6]; Sulfonation department, N 98) was 3.7 ng/mL.
